The first test has as its system normal human melanocytes. The experiment in a line: Activity on constitutive melanogenesis: melanin production by normal human melanocytes in vitro. In kind it is cell-based. The following applies: Melanocyte, 72 hours incubation, optical density, maximum concentration tested 200 μM, read-out: IC50 (μM): concentration at which a 50% decrease in melanin synthesis is achieved. How it is done: For the evaluations of the effect of preventing or decreasing pigmentation of the skin and/or of lightening of this skin, the examples are performed in the following manner.
The measurement of the depigmenting activity (reduction of melanin production) of compounds of formula (I) was performed by assaying normal human melanocytes in vitro as follows.
First of all, normal human melanocytes were cultured and dispensed into 384 wells. After 24 hours, the culture medium was replaced with a medium containing compounds of formula (I) to be evaluated. The cells were incubated for 72 hours before measurement of the final optical density, which measures the amount of melanin produced by the melanocytes. A dose effect was performed using a wide concentration range of the compounds evaluated. Thus, by making the concentrations and the melanin measurements correspond, it was possible to determine an IC50 in μM: concentration at which a 50% decrease in melanin synthesis is achieved.
Consider `CC(CCO)c1ccc(O)cc1O` (stereo not drawn) [Compound 1, 4-(3-hydroxy-1-methylpropyl) benzene-1,3-diol], for which the IC50 came out at 3.61 µM.
Consider `CC(=O)OCCC(C)c1ccc(OC(C)=O)cc1OC(C)=O` (stereo not drawn) [Compound 2, 4-[4-(acetyloxy)but-2-yl]benzene-1,3-diyl diacetate], for which the IC50 worked out at 4.08 µM.
Regarding `CC(=O)OCCC(C)c1ccc(O)cc1O` (stereo not drawn) [Compound 3, 3-(2,4-dihydroxyphenyl) butyl acetate], the IC50 is 4.96 µM.
The same measure, in the same setting: for `OCCCc1ccc(O)cc1O` [compound (A), reference compound] the value was 23.4 µM.

In another test the test system is pigmented reconstructed epidermides (keratinocytes and melanocytes of European origin, Episkin). Briefly: Depigmenting activity on pigmented reconstructed epidermis (melanin quantified by image analysis, Fontana-Masson stain). Conditions: compounds at 30 μM in DMSO, added to culture medium. In kind it is cell-based, human. How it is done: The aim of this test is to evaluate the modulation of melanogenesis in pigmented reconstructed epidermides after “systemic” application of the products. • The compounds are tested at 30 μM in DMSO. • The pigmented epidermides are reconstructed using keratinocytes and melanocytes of European origin seeded on the substrate BPER (Episkin). The test products are added to the culture medium immediately on seeding the cells and at all the changes of medium.
The pigmented reconstructed epidermis standard study model was published by:
Regnier M., Duval C., Galey J. B., Philippe M., Lagrange A., Tuloup R., Schmidt R., Cellular and Molecular Biology, 1999, 45, 7, 969-980: “Keratinocyte-melanocyte co-cultures and pigmented reconstructed human epidermis: models to study modulation of melanogenesis”.
The melanin was quantified by image analysis on histological sections after revelation with Fontana-Masson stain. Each stained epidermis is photographed over its entire length using a camera connected to a microscope.
The decrease in the amount of melanin is evaluated relative to the solvent (DMSO)
For the molecule `CC(CCO)c1ccc(O)cc1O` (stereo not drawn) [Compound 1, 4-(3-hydroxy-1-methylpropyl) benzene-1,3-diol], the “Depigmenting activity/DMSO (decrease in the amount of melanin relative to the solvent)” value is reported as −59%.
As for `CCCCc1ccc(O)cc1O` [Lucinol, reference compound], the “Depigmenting activity/DMSO (decrease in the amount of melanin relative to the solvent)” value is −41%.
